The subject of data set [1] is PBMC. The class given is cell-based, human. On the procedure: This Example investigated whether the inhibition of TNF-α in Example 2 and/or IL-2 in Example 3 was due to cell death of the PBMCs.
PBMCs were isolated from one donor as described in Example 1. 1 ml of 2×10^6 PBMC cells were added to 12 wells in a 24-well plate. 1 ml of 2000 mM propane-1,2-diol was added to two of the wells to get a final concentration of 1000 mM (8% propane-1,2-diol). The same procedure was used to obtain decreasing concentrations of propane-1,2-diol (500 mM (4% propane-1,2-diol), 250 mM (2% propane-1,2-diol), 125 mM (1% propane-1,2-diol), 62.5 mM (0.5% propane-1,2-diol)). After 24 hrs incubation at 37° C. and 5% CO2, 15 μl of each cell culture was mixed with 15 μl of tryptan blue and dead cells out of 100 cells were counted under a light microscope.

In data set [2] the test system is TNF-α production. Kind of data set: TNF-α production by LPS-stimulated human PBMC (ELISA). The class given is cell-based. The method, then: (§1) Human venous blood was sampled and collected in heparinized vials and mix well by gently inverting the tubes several times. Human peripheral blood mononuclear cells (PBMCs) were isolated by gradient centrifugation using Ficoll-Histopaque®. Cells were washed (centrifuged at 400×g for 10 min) with sterile phosphate-buffered saline (PBS). PBS was discarded, and the cell pellet re-suspended in sterile Dulbecco's Modified Eagle's Medium (DMEM). Cells were then counted by haemocytometer using white blood cell (W.B.C.) diluting fluid: 15 μl of cell suspension was added to 15 μl trypan blue and mixed well. The cell suspension was loaded in a haemocytometer and the cells were counted. The cell concentration was adjusted at 2×10^6 cells/ml with DMEM supplemented with 1% of penicillin-streptomycin solution and 5% human serum. The approximate yield of cells varied between 107-10^8 cells/ml. 1 ml of cell suspension was seeded in a 24 well culture plate. 1 ml propane-1,2-diol diluted in DMEM was added at various concentrations (from 0 to 100 mM). Phytohemagglutinin (PHA), 15 μl, was added to a final concentration of 1 μg/ml. When the effect of different concentrations of PHA were studied (FIG. 1), the range used varied from 0 to 25 μg/ml. The plate was incubated for 24 h at +37° C. and in 5% CO2. The plate was then frozen at −20° C. until further analysis. After thawing the samples, an enzyme-linked immunosorbent assay (ELISA) was performed according to the manufacturer's specifications. In vitro culture of human PBMCs was performed as described above in Example 1. In brief, 1 ml propane-1,2-diol was added to 1 ml PBMC to obtain a range of 30 final concentrations (0 to 100 mM). 15 μl LPS was added to a final concentration of 100 nM and the cell suspension was incubated at 37° C. in 5% CO2 for 24 h. The plate was then frozen in −20° C. until the ELISA analysis. TNF-α production was determined by ELISA using procedures (BioSite, Sweden; Art. No: EA102165) according to the manufacturer's specifications.
(In general: ELISA stands for enzyme-linked immunosorbent assay.)

Data set [3] relates to pig oral mucosa. Kind of data set: Dehydration effect towards oral mucosa (immersion of tissue in solution). The method, then:
Fresh pig oral mucosa (300-700 mg) was equilibrated at room temperature at 40% relative humidity (RH), weighed and immersed in 5 ml of the investigated solution for 20 h at room temperature (RT, ˜20-25° C.). The tissue was removed from the solution, dried by blotting and weighed. Finally, it was dried at +40° C. for 24 h.

In data set [4] the test system is IL-2 production. Kind of data set: IL-2 production by PHA-stimulated human PBMC (ELISA). The class given is cell-based. The following applies: 100 mM propane-1,2-diol, 1 μg/ml PHA-stimulated PBMC, FIG. 4. The method, then: as §1, with “[…] IL-2” for “The plate was incubated for 24 h at +37° C. and in 5% CO2. The plate was then frozen at −20° C. until further analysis. After thawing the samples, an enzyme-linked immunosorbent assay (ELISA) was performed according to the manufacturer's specifications. In vitro culture of human PBMCs was performed as described above in Example 1. In brief, 1 ml propane-1,2-diol was added to 1 ml PBMC to obtain a range of 30 final concentrations (0 to 100 mM). 15 μl LPS was added to a final concentration of 100 nM and the cell suspension was incubated at 37° C. in 5% CO2 for 24 h. The plate was then frozen in −20° C. until the ELISA analysis. TNF-α”

Entries after “also recorded” stand apart in the source; their conditions may differ.

From patent US12544343B2, “Treatment of inflammatory condition in mucous membrane or skin” (MUCOCORT AB, priority 2019, dated 2026) come the findings set out here.

For `CC(O)CO` (stereo not shown) [propane-1,2-diol], in data set [1], the “cell death of peripheral blood mononuclear cells at 5% (w/v)” value is “induced a significant cell death”; the “toxic effect / cell death of PBMCs, up to 1%” value is on record as “did not have any significant toxic effect”; the “toxic effects / cell death at an amount according to the invention” value was “does not have any significant toxic effects”. Further, the “inhibition of TNF-α, concentration dependence” value in data set [2] (0 to 100 mM, LPS-stimulated PBMC from 4 individuals, FIGS. 1A-1D) is reported as “concentration-dependent inhibition”. The “inhibition of TNF-α at 100 mM” value in data set [2] (100 mM propane-1,2-diol, LPS-stimulated PBMC from 4 individuals, 24 h, FIGS. 1A-1D) is “maximal inhibition; also recorded: strong inhibition”. In data set [2] (100 mM, LPS-stimulated PBMCs from 12 different individuals, FIG. 2), the “inhibition of TNF-α in PBMC from 12 individuals” value is “inhibition was observed in all 12 individuals”. Moreover, the “dehydration effect at 1% and 5%” value in data set [3] (propane-1,2-diol solutions at concentration of 1% and 5%) is “No dehydration effect”. Moreover, the “dehydration effect at 50%, 80% and 100%” value in data set [3] (propane-1,2-diol solutions at concentrations 50%, 80% and 100%) is recorded as “dehydration effect was evident”. For the same compound, the “IL-2 production reduced, patient A” value in data set [4] (patient A) is 53%. The “IL-2 production reduced, patient B” value in data set [4] (patient B) was determined as 64%.
